Source: publication PMC7736581, “Activation of the IRE1 RNase through remodeling of the kinase front pocket by ATP-competitive ligands” (Nature Communications, 2020)

Tests used:
Test in all cases: biochemical
Design in all cases: Invitrogen kinase panel: Z'Lyte activity (ATP at Km) or LanthaScreen competitive ATP-site binding, percent inhibition
p38_delta = molecular target: T1, p38_delta (Homo sapiens, UniProt O15264)
T1 construct: gene MAPK13

MELK = MELK (Homo sapiens, UniProt Q14680)
CAMKK2 = CAMKK2 (Homo sapiens, UniProt Q96RR4)
CLK3 = CLK3 (Homo sapiens, UniProt P49761)
JNK3 = molecular target: T2, JNK3 (Homo sapiens, UniProt P53779)
T2 construct: gene MAPK10

SPHK1 = SPHK1 (Homo sapiens, UniProt Q9NYA1)
Ron = molecular target: T3, Ron (Homo sapiens, UniProt Q04912)
T3 construct: gene MST1R

CK1_alpha1 = molecular target: T4, CK1_alpha1 (Homo sapiens, UniProt P48729)
T4 construct: gene CSNK1A1

PhK_gamma2 = molecular target: T5, PhK_gamma2 (Homo sapiens, UniProt P15735)
T5 construct: gene PHKG2

PRAK = molecular target: T6, PRAK (Homo sapiens, UniProt Q8IW41)
T6 construct: gene MAPKAPK5

TrkB = molecular target: T7, TrkB (Homo sapiens, UniProt Q16620)
T7 construct: gene NTRK2

mTOR = mTOR (Homo sapiens, UniProt P42345)
CamKIV = molecular target: T8, CamKIV (Homo sapiens, UniProt Q16566)
T8 construct: gene CAMK4

WNK2 = WNK2 (Homo sapiens, UniProt Q9Y3S1)
EphA1 = EphA1 (Homo sapiens, UniProt P21709)
PKC_theta = molecular target: T9, PKC_theta (Homo sapiens, UniProt Q04759)
T9 construct: gene PRKCQ

Kit = Kit (Homo sapiens, UniProt P10721)
ZAK = molecular target: T10, ZAK (Homo sapiens, UniProt Q9NYL2)
T10 construct: gene MAP3K20

Flt4 = Flt4 (Homo sapiens, UniProt P35916)
Mink1 = Mink1 (Homo sapiens, UniProt Q8N4C8)
PLK2 = PLK2 (Homo sapiens, UniProt Q9NYY3)
NEK6 = NEK6 (Homo sapiens, UniProt Q9HC98)
MARK3 = MARK3 (Homo sapiens, UniProt P27448)
PASK = PASK (Homo sapiens, UniProt Q96RG2)
NLK = NLK (Homo sapiens, UniProt Q9UBE8)

T3 sequence (Q04912 whole entry): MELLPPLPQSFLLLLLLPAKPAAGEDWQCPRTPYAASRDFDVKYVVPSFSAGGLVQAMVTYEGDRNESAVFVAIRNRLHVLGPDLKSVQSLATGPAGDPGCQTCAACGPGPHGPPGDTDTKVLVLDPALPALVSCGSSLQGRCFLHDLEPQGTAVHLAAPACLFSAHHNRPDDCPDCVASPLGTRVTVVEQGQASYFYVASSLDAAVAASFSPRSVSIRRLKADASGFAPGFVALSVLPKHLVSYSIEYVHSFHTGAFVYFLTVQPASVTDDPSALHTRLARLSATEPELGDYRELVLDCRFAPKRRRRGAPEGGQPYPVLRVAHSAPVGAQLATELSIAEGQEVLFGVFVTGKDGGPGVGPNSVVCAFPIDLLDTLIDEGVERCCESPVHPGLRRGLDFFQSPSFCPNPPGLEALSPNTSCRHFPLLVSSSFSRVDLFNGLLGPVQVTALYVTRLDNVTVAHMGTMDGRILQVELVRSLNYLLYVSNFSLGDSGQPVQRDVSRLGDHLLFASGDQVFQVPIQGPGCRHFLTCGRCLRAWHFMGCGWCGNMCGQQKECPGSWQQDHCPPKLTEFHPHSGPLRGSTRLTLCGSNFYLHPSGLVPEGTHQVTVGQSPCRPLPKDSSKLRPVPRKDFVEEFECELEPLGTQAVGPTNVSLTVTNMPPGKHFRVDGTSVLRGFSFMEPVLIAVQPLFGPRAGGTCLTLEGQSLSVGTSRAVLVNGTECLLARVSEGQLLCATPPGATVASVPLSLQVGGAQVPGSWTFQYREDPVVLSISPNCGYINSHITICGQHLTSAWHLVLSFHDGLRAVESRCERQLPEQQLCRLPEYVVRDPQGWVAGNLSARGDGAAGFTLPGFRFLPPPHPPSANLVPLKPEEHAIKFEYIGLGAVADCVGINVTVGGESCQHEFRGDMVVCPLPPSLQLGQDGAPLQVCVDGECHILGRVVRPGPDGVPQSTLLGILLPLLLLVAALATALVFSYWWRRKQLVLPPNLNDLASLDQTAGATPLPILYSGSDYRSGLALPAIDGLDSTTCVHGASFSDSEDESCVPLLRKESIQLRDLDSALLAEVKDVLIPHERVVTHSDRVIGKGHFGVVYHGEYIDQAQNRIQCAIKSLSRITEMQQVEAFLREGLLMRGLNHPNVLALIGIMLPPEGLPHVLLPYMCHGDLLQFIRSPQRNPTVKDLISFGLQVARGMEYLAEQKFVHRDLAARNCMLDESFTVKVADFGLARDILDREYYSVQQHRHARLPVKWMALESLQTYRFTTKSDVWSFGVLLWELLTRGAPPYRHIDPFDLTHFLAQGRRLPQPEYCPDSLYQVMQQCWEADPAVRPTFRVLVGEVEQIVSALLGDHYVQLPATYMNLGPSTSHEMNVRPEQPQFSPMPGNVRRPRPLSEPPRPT
Sequence of PLK2 (Q9NYY3 whole entry): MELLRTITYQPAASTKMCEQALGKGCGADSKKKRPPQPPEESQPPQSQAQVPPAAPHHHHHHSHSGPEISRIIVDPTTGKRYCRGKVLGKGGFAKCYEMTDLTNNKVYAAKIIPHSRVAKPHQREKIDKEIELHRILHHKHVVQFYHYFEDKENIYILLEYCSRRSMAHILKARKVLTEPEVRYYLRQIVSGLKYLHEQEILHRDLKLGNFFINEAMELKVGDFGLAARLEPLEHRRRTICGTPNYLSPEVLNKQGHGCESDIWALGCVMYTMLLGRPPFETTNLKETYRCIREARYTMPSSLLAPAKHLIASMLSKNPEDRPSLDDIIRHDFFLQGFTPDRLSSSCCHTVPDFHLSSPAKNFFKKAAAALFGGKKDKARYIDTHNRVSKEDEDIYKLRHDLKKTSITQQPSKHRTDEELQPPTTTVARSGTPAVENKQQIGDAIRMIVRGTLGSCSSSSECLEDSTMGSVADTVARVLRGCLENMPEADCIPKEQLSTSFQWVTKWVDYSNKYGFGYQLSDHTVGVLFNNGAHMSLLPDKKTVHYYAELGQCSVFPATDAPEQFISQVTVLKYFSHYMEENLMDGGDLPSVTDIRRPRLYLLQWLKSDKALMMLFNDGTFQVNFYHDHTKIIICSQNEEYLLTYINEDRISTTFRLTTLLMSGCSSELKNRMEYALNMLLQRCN
Sequence of PASK (Q96RG2 whole entry): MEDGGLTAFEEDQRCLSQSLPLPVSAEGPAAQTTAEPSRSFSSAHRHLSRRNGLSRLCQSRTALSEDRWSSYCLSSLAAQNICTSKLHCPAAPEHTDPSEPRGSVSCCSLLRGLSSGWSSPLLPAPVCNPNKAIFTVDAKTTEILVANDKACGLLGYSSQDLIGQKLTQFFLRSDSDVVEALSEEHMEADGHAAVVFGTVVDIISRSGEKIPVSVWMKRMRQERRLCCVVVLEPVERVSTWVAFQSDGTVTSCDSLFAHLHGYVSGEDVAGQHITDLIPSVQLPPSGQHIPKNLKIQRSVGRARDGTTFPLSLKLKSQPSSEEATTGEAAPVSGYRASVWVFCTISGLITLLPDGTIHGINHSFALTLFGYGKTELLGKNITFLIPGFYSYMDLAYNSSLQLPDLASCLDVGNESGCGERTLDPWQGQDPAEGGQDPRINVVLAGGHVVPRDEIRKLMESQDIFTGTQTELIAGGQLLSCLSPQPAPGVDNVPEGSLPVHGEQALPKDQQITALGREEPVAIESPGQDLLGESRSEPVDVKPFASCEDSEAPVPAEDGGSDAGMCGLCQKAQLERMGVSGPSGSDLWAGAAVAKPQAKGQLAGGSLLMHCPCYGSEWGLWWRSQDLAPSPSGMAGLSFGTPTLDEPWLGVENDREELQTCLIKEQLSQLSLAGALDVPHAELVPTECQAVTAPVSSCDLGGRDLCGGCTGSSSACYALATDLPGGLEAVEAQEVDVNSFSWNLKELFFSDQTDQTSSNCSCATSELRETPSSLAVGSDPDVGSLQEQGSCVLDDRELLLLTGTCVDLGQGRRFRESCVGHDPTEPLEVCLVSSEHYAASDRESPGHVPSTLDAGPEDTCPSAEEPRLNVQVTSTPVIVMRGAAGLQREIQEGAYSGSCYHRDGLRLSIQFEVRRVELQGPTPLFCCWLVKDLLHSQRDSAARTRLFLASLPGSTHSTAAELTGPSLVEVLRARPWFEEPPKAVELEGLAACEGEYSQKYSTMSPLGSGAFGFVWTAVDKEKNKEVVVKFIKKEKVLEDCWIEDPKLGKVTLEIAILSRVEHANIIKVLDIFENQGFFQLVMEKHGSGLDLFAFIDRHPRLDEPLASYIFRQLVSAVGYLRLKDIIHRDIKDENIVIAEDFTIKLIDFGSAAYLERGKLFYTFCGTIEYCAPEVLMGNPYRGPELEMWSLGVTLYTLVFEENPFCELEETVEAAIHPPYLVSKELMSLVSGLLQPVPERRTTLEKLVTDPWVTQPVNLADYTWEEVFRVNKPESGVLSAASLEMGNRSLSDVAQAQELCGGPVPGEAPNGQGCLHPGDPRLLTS
Sequence of CLK3 (P49761 whole entry): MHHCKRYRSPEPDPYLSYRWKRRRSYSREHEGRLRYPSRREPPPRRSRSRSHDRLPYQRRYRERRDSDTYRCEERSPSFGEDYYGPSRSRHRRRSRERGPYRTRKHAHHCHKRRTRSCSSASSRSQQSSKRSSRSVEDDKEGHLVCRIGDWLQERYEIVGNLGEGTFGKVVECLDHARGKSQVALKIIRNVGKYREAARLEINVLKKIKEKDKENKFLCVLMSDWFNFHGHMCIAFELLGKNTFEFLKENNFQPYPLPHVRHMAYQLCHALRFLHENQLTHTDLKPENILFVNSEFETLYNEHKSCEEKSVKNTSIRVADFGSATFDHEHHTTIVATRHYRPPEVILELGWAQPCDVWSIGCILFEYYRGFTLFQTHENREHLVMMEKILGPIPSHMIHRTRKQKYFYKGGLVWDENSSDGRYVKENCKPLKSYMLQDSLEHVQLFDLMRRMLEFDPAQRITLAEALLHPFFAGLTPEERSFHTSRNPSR
T5 sequence (P15735 whole entry): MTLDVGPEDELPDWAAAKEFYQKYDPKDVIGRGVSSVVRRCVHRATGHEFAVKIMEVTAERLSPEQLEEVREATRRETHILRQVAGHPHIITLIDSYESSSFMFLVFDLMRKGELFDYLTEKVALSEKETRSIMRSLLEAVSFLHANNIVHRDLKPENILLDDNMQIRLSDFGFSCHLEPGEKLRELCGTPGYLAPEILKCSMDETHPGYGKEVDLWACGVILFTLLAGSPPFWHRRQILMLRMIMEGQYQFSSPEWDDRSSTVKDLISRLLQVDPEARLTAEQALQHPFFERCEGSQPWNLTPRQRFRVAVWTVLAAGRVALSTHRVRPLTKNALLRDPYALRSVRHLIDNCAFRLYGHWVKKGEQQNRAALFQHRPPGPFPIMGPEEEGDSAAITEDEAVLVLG
T9 sequence (Q04759 whole entry): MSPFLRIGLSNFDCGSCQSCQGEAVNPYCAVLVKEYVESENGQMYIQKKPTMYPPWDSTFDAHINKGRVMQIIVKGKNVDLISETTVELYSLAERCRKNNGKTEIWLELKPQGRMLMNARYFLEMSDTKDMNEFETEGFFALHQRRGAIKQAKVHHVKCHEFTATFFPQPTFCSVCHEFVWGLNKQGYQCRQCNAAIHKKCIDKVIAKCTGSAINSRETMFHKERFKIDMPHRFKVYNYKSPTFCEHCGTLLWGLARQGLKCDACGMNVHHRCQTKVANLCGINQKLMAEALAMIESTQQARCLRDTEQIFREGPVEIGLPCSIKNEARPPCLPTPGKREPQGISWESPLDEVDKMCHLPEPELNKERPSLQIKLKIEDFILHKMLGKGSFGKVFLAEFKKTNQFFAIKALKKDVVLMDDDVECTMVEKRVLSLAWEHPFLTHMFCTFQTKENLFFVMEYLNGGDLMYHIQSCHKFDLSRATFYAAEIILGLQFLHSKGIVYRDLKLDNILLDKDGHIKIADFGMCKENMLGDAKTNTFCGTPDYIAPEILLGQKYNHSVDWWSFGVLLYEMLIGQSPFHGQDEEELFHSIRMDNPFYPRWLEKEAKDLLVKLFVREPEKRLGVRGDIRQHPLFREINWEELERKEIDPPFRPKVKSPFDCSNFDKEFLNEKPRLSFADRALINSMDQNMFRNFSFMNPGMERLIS

## CCOC(=O)Nc1cccc2c(Oc3ncccc3-c3ccnc(N[C@H]4CCCNC4)n3)c(C)ccc12 [G-1749]
p38_delta
  inhibition at 1 µM: 11.5%
MELK
  inhibition at 1 µM: 33%
CAMKK2
  inhibition at 1 µM: -0.5%
CLK3
  inhibition at 1 µM: 7%
JNK3
  inhibition at 1 µM: 52.5%
SPHK1
  inhibition at 1 µM: 14.5%
Ron
  inhibition at 1 µM: -6%
CK1_alpha1
  inhibition at 1 µM: -1.5%
PhK_gamma2
  inhibition at 1 µM: 2.5%
PRAK
  inhibition at 1 µM: 0.5%
TrkB
  inhibition at 1 µM: 0.5%
mTOR
  inhibition at 1 µM: 5%
CamKIV
  inhibition at 1 µM: -1.5%
WNK2
  inhibition at 1 µM: -1%
EphA1
  inhibition at 1 µM: 7%
PKC_theta
  inhibition at 1 µM: 1.5%
Kit
  inhibition at 1 µM: 0%
ZAK
  inhibition at 1 µM: -0.5%
Flt4
  inhibition at 1 µM: 5.5%
Mink1
  inhibition at 1 µM: 25%
PLK2
  inhibition at 1 µM: 3%
NEK6
  inhibition at 1 µM: 2.5%
MARK3
  inhibition at 1 µM: 8%
PASK
  inhibition at 1 µM: 4.5%
NLK
  inhibition at 1 µM: 13%

## CC#CC(=O)Nc1cccc2c(Oc3ncccc3-c3ccnc(N[C@H]4CCCNC4)n3)c(C)ccc12 [G-7658]
p38_delta
  inhibition at 1 µM: 13.5%
MELK
  inhibition at 1 µM: 19.5%
CAMKK2
  inhibition at 1 µM: -0.5%
CLK3
  inhibition at 1 µM: 11.5%
JNK3
  inhibition at 1 µM: 51.5%
SPHK1
  inhibition at 1 µM: -5%
Ron
  inhibition at 1 µM: 4%
CK1_alpha1
  inhibition at 1 µM: -0.5%
PhK_gamma2
  inhibition at 1 µM: 4%
PRAK
  inhibition at 1 µM: -1%
TrkB
  inhibition at 1 µM: 0.5%
mTOR
  inhibition at 1 µM: 7%
CamKIV
  inhibition at 1 µM: -2.5%
WNK2
  inhibition at 1 µM: -2.5%
EphA1
  inhibition at 1 µM: 6%
PKC_theta
  inhibition at 1 µM: 0%
Kit
  inhibition at 1 µM: -0.5%
ZAK
  inhibition at 1 µM: 0.5%
Flt4
  inhibition at 1 µM: 6.5%
Mink1
  inhibition at 1 µM: 4%
PLK2
  inhibition at 1 µM: 3%
NEK6
  inhibition at 1 µM: 17.5%
MARK3
  inhibition at 1 µM: 8%
PASK
  inhibition at 1 µM: 9.5%
NLK
  inhibition at 1 µM: 19%
